# From patent publication US20060095020A1, “Introduction of agent with medical device” (Medtronic, Inc., priority 2004, published 2006)
# System: staphylococcus epidermidis
# Conditions: in vitro
# Source text: One skilled in the are would be able to determine the best effective concentration of the active agent, such about 0.05%, about 1%, about 5%, about 10%, about 20%, or the like that should be deployed in a choosen configuration of a given device.
# FIG. 10 is a conceptual diagram illustrating an in vitro testing system 160 with an active agent. Testing system 160 includes a culture plate 162, which serves as a test platform. […] A experimental tube 168 made at least in part of diffusible material is deployed in plate 162 proximate to microorganisms 166. The diffusible material is configured to pass the test agent to the indicator by diffusion. Experimental tube 168 may be wholly or partially embedded in growth medium 164, or may rest atop growth medium 164. Experimental tube 168 includes a lumen configured to receive a test active agent.
# A pump 170 pumps the active agent from a reservoir 172 into the lumen of tube 168. A valve 174 may be closed to prevent leakage or other discharge of the active agent from tube 168, and an outlet reservoir 176 may be provided to collect fluid that discharges from tube 168. In some embodiments, pump 170, valve 174, or both are electronically controlled such that the quantity of active agent in tube 168 is known, such that the pressure of active agent in tube 168 is known, or such that the flow rate of active agent in tube 168 is known. When the active agent is an antibiotic, the effect of the antibiotic agent on microorganisms 166, if any, can be observed using conventional observational techniques, such as optical or microscopic examination. In this way, the effect of the active agent on microorganisms 166 serves as an indicator of diffusion of the test agent through the diffusible material.
compound,measurement,setting,value
OO [hydrogen peroxide],zone of inhibition of bacterial growth,0.3 percent hydrogen peroxide concentration,about twenty-five
same,zone of inhibition of bacterial growth from the site of diffusion,"thirty percent concentration hydrogen peroxide solution, diffusing through polyethylene 80 (PE80A) tubing",eighty
same,effectiveness against staphylococcus epidermidis,thirty percent concentration hydrogen peroxide solution,substantial effectiveness
